# Assay results from article PMC7827406, “Structure–Activity Relationship (SAR) Study of Spautin-1 to Entail the Discovery of Novel NEK4 Inhibitors” (International Journal of Molecular Sciences, 2021).
# Where two headings read alike, the source gives them in different places.
# Key:
# Experiment in all cases: biochemical
# Design in all cases: Eurofins KinaseProfiler full panel at Km ATP, residual kinase activity (%) relative to DMSO
# [1] = target: T1, ALK2(h) (Homo sapiens, UniProt Q04771)
# T1 construct: gene ACVR1
# T1 sequence (Q04771 1-509): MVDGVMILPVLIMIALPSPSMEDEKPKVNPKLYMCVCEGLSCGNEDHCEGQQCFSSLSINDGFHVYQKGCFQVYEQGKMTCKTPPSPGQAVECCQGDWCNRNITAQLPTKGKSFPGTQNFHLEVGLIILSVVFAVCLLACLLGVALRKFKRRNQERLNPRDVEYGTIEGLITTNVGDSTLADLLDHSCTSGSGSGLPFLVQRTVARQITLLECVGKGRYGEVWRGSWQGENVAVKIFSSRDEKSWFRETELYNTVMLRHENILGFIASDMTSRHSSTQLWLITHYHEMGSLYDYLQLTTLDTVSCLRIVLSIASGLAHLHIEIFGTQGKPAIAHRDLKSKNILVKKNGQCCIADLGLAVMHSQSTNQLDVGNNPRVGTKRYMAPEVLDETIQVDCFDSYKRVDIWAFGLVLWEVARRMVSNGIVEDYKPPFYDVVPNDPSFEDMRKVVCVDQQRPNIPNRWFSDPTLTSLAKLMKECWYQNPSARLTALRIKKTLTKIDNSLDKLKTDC
# Method in brief: (§1)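 Radiometric kinase activity assays were run with ATP at Km and compounds at 10 µM, and remaining activity (%) was reported. A separate competitive binding screen measured DNA-tagged kinase displaced from immobilized active-site ligands by qPCR, giving percent kinase still bound at 10 µM compound in DMSO.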
# [2] = target: T2, Abl(m) (Mus musculus, UniProt P00520)
# T2 construct: gene Abl1
# Method in brief: as §1
# [3] = target: T3, ROCK-II(h) (Homo sapiens, UniProt O75116)
# T3 construct: gene ROCK2
# Method in brief: as §1
# [4] = target: T4, PKCδ(h) (Homo sapiens, UniProt Q05655)
# T4 construct: gene PRKCD
# Method in brief: as §1
# [5] = target: T5, IKKε(h) (Homo sapiens, UniProt Q14164)
# T5 construct: gene IKBKE
# T5 sequence (Q14164 1-716): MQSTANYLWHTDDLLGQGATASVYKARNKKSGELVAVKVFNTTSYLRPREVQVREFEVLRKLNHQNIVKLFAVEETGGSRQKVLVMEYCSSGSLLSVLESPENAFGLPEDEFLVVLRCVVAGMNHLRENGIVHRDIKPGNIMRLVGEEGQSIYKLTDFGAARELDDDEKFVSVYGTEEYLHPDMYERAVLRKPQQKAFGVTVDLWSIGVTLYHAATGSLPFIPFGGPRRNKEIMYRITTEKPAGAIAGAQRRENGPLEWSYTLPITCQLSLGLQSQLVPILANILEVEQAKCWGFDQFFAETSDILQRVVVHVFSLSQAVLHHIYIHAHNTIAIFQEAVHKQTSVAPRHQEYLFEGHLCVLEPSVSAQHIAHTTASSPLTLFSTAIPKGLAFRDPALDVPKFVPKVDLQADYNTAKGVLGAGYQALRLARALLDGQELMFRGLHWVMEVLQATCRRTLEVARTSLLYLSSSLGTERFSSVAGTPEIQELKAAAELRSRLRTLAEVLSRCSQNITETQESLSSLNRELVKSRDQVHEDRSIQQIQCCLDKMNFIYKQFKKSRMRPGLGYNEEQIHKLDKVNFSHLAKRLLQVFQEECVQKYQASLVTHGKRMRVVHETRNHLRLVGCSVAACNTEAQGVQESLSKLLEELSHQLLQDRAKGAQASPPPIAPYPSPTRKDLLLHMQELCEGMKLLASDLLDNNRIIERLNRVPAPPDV
# Method in brief: as §1
# [6] = target: T6, PKCι(h) (Homo sapiens, UniProt P41743)
# T6 construct: gene PRKCI
# T6 sequence (P41743 1-596): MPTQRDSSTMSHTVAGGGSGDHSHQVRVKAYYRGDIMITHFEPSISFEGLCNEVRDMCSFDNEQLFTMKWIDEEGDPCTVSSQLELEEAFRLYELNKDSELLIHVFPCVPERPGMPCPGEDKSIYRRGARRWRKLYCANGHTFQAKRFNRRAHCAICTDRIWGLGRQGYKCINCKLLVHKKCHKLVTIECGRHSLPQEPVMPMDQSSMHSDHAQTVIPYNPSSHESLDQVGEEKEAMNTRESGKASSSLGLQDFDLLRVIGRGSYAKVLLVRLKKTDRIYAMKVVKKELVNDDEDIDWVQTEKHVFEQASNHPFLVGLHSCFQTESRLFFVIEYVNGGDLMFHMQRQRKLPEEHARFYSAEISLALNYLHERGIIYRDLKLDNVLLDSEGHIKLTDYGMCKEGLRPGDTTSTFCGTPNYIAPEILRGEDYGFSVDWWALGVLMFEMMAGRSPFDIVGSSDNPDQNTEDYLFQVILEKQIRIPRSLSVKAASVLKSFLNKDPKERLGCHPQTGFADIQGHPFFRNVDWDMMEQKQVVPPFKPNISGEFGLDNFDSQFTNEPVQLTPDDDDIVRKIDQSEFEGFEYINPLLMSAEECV
# Method in brief: as §1
# [7] = target: FGFR2(N549H)(h) (Homo sapiens, UniProt P21802, N549H)
# Method in brief: as §1
# [8] = read-out: Residual activity (%) Spautin-1 5aa
# [9] = read-out: Residual activity (%) 5as
# [10] = read-out: Residual activity (%) 5at
# [11] = read-out: Residual activity (%) 5ay
# T4 sequence (Q05655 whole entry): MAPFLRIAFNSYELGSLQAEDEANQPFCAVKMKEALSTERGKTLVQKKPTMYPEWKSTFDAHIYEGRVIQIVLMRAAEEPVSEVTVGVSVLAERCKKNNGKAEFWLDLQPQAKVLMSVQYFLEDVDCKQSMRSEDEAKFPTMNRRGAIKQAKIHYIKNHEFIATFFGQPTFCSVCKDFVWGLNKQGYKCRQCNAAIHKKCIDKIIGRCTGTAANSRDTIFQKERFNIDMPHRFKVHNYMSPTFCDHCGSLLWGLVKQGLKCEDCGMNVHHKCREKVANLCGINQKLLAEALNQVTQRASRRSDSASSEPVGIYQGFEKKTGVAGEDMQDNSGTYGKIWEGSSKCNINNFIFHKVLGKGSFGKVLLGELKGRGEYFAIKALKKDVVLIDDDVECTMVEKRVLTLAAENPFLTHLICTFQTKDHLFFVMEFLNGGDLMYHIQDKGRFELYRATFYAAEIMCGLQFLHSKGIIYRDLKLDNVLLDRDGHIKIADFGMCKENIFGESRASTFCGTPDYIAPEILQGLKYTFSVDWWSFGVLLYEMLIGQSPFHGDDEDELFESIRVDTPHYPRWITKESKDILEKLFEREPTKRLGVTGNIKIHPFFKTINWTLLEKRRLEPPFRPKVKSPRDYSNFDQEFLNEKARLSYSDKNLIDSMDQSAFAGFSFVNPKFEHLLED
# Chain of FGFR2(N549H)(h) (P21802 whole entry N549H): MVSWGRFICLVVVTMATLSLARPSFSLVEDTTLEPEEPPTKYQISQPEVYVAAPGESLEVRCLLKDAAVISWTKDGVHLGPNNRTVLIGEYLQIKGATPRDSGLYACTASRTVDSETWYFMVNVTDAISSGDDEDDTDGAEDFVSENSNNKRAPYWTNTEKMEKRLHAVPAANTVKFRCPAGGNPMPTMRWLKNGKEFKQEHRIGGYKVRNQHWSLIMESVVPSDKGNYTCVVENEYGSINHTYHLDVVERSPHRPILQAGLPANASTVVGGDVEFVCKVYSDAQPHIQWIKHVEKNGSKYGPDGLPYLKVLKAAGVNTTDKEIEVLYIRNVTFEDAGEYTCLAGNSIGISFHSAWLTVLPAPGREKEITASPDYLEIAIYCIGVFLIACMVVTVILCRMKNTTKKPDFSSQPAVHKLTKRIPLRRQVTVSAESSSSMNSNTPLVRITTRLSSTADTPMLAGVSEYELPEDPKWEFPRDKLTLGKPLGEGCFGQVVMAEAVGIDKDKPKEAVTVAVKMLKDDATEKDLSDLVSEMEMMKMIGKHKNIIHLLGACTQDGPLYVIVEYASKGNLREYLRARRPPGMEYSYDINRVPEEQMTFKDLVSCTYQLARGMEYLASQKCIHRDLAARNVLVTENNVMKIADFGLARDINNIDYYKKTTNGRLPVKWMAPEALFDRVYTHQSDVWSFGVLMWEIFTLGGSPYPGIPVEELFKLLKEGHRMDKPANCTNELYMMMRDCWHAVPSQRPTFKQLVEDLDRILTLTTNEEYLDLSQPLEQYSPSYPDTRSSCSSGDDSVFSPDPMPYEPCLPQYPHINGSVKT
# T2 sequence (P00520 whole entry): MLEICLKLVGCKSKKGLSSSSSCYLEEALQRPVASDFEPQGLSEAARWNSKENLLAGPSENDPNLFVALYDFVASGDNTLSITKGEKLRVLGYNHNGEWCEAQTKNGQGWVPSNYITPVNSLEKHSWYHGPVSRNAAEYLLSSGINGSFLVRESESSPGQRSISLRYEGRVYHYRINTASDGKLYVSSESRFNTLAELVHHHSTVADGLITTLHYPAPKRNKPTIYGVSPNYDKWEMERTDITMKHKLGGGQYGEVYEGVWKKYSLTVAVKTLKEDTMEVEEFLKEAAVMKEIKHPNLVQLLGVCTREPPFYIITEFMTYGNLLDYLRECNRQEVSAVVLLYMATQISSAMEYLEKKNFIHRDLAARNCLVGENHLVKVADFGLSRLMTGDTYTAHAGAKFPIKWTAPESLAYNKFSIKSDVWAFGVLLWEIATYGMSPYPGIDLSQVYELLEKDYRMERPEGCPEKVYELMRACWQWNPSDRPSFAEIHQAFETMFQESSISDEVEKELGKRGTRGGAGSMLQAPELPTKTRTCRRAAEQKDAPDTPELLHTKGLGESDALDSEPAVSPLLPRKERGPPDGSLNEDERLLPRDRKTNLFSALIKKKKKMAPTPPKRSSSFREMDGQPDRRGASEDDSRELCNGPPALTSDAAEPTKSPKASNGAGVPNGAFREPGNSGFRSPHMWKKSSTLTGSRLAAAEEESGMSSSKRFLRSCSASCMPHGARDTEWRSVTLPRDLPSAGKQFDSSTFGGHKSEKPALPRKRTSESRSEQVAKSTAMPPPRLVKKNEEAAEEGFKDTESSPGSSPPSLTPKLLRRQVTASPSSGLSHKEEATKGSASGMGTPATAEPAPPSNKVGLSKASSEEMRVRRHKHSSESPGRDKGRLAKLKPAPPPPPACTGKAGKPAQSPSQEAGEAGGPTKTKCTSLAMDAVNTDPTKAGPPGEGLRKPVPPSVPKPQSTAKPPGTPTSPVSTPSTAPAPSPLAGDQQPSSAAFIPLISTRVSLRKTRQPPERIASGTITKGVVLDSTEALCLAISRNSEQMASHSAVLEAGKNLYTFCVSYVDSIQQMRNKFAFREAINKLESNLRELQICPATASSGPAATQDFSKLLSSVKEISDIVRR
# T3 sequence (O75116 whole entry): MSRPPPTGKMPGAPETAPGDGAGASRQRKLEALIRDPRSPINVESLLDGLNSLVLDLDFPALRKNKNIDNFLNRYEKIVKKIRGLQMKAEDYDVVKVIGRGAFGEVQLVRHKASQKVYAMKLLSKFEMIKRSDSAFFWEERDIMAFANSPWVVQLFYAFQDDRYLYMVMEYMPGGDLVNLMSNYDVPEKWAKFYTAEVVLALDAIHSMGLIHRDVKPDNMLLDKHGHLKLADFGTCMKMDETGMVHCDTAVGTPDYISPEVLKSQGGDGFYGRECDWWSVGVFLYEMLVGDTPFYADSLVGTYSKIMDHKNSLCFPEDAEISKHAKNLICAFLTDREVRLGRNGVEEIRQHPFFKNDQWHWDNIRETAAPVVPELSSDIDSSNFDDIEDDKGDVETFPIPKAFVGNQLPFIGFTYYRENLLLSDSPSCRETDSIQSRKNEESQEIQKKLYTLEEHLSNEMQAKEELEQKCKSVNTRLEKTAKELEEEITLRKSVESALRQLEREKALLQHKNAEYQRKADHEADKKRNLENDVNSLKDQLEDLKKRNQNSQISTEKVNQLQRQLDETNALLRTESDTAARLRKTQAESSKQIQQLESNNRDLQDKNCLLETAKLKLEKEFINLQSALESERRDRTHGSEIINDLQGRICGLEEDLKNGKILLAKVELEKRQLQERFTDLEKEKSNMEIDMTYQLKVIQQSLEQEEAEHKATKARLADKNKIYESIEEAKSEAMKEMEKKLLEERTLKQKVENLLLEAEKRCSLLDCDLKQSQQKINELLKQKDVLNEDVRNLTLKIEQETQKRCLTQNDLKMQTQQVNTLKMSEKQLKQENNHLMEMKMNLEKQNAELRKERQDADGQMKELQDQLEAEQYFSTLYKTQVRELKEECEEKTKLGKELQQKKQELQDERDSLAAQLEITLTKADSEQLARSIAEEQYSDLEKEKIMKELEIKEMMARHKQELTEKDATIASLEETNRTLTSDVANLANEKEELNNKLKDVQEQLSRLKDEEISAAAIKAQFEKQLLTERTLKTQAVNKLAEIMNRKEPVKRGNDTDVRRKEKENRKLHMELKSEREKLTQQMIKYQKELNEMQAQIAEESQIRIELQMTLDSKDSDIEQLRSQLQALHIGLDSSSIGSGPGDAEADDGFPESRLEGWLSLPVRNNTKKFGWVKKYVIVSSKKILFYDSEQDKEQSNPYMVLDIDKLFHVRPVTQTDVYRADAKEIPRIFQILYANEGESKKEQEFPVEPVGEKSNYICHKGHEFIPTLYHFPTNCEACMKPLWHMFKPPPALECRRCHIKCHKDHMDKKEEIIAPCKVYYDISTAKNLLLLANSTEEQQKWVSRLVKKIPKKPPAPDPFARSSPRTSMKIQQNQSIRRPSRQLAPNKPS
smiles,measurement,setting,value
"Fc1ccc(CNc2ncnc3ccc(F)cc23)cc1 [5aa, 6-Fluoro-N-(4-fluorobenzyl)-4-Quinazolinamine]",remaining activity at 10 µM,[1]; [8],60%
same,remaining activity at 10 µM,[2]; [8],90%
same,remaining activity at 10 µM,[3]; [8],88%
same,remaining activity at 10 µM,[4]; [8],81%
same,remaining activity at 10 µM,[5]; [8],64%
same,remaining activity at 10 µM,[6]; [8],84%
same,remaining activity at 10 µM,[7]; [8],72%
"Fc1ccc(CCNc2ncnc3ccc(F)cc23)cc1 [5as, 6-Fluoro-N-[2-(4-Fluorophenyl)Ethyl]-4-Quinazolinamine]",remaining activity at 10 µM,[1]; [9],45%
same,remaining activity at 10 µM,[2]; [9],83%
same,remaining activity at 10 µM,[3]; [9],81%
same,remaining activity at 10 µM,[4]; [9],97%
same,remaining activity at 10 µM,[5]; [9],72%
same,remaining activity at 10 µM,[6]; [9],114%
same,remaining activity at 10 µM,[7]; [9],80%
"Fc1ccc2ncnc(NCCc3ccc(Cl)cc3)c2c1 [5at, N-[2-(4-Chlorophenyl)Ethyl]-6-Fluoro-4-Quinazolinamine]",remaining activity at 10 µM,[1]; [10],58%
same,remaining activity at 10 µM,[2]; [10],99%
same,remaining activity at 10 µM,[3]; [10],79%
same,remaining activity at 10 µM,[4]; [10],88%
same,remaining activity at 10 µM,[5]; [10],79%
same,remaining activity at 10 µM,[6]; [10],98%
same,remaining activity at 10 µM,[7]; [10],68%
"COc1ccc2ncnc(Nc3cccc(F)c3)c2c1 [5ay, N-(3-Fluorophenyl)-6-Methoxy-4-Quinazolinamine]",remaining activity at 10 µM,[1]; [11],50%
same,remaining activity at 10 µM,[2]; [11],56%
same,remaining activity at 10 µM,[3]; [11],84%
same,remaining activity at 10 µM,[4]; [11],75%
same,remaining activity at 10 µM,[5]; [11],67%
same,remaining activity at 10 µM,[6]; [11],89%
same,remaining activity at 10 µM,[7]; [11],66%
